In article PMC6508865, “Dynamics of thymol dietary supplementation in quail (Coturnix japonica): Linking bioavailability, effects on egg yolk total fatty acids and performance traits” (PLoS ONE, 2019):
Where two headings read alike, the source gives them in different places.

Legend:
female quail = system: female quail; parameters: method as in ref 41 = [41]; 41 Labaque MC , Kembro JM , Luna A , Marin RH . Effects of thymol feed supplementation on female Japanese quail ( Coturnix coturnix ) behavioral fear response . Anim Feed Sci Technol . 2013; 183 ( 1–); details: THY2, 2 g of THY per kg of feed; cited from earlier work
[1] = Thymol quantification in egg yolk (HS-SPME/GC-MS) during chronic dietary supplementation; type: in vivo, Coturnix japonica; details: for concentration at 2 days of supplementation / concentration at 9 days of supplementation / concentration at 16 days of supplementation / concentration at 26 days of supplementation / concentration at 17 days after supplement withdrawal: female, Japanese quail (Coturnix japonica), egg yolk, oral, read-out: THY concentration in egg yolk
Source text: (§1) A total of 50 eighty-five days-old female quail of homogeneous body weights (251 ± 1 g; Mean ± SE) and in their egg-laying peak were selected from an initial group of 96 female individuals. All birds continued receiving a basal diet between 85 and 100 days of age and all variables (see below for details) were registered along this period (Pre-supplementation period, Fig 1). From 100 to 128 days of age (S period, Fig 1), females were randomly assigned to either a chronic dietary supplementation with one of 3 THY doses (THY2, THY4 and THY6; 10 females each) or to one of 2 control groups (basal diet, BASAL, and basal diet with vehicle solution, VEHICLE; 10 females each). Once finished the S period, half of the quail were slaughtered for histological analysis (n = 25; Slaughter 1, Fig 1) and the other half were subjected to a pS period of 21 days, during which all females received the BASAL diet (pS, Fig 1). After this period, the remaining 25 animals were also slaughtered for histological analysis (Slaughter 2, Fig 1). In this way, we assessed whether THY induced changes in variables indicative of tissue damage and if so, whether the potential damages could reverse after 3 weeks of supplement withdrawal.
(§2) To assess changes in egg yolk total FA composition, egg physical characteristics, laying rate, body weight, feed intake and general welfare, during the S and pS periods, five sampling points were defined (Sample points, Fig 1): one initial sample point (at 0 days of S); three sample points during the S period (at 7, 14 and 28 days of S); and one sample point at the end of the pS period (21 days of pS). It should be noted that for determinations of THY concentration, eggs and quail droppings were collected offset from the other variables measured by 2 days, thus were collected on days 2, 9, 16, and 26 days of S, and 17 days of pS, respectively.
Thymol was commercially obtained from Sigma-Aldrich (SAFC®, ⩾99%; FCC, Saint Louis, MO, USA). Supplemented quail were provided 2, 4 or 6.25 g of THY per kg of feed. For this end, THY was prepared in a 2.4, 4.8 and 7.5% w/v ethanolic solution and uniformly sprayed on fresh feed. The feed was prepared and administrated daily, to minimize THY volatilization from feed before its consumption by females. The doses were selected considering two factors. The first, the concentration range for which the transfer of THY to the chicken and/or quail egg has been established. Second, the concentrations of THY supplementation that have shown biological effects. […] In this context, THY4 is and intermediate dose between the last two. Nutrient and FA compositions of the diets supplied were identical between each other and are reported in S1, S2 and S3 Tables, and are in accordance with the National Research Council recommendation.
Egg yolks and droppings of each female were obtained at each sample point (Sample points, Fig 1) and THY concentration was immediately measured by head space-solid phase microextraction followed by gas chromatography-mass spectrometry (HS-SPME/GC-MS) according to Fernandez et al.. SPME was performed with a manual holder with 100 um polydimethylsiloxane (PDMS) fiber. An aliquot of egg yolk (3 g), droppings (5 g) or feed (5 g) was put in a sealed 20 mL glass vial, spiked at the corresponding level with the standard m-cresol (Sigma-Aldrich; ≥ 99% (GC); Saint Louis, MO, USA) stock solution, and vortexed for 5 min. The vials were placed in a water bath and the PDMS fiber was exposed to the headspace for 30 min at 60°C and 5 min at 40°C for egg yolk and droppings or feed, respectively. The fiber was then inserted directly into the GC injector for desorption at 250°C for 10 min in splitless mode. Chromatography analysis was carried out in a Perkin Elmer Clarus 600 equipped with a PSSI injector and a quadrupole MS detector (Perkin Elmer, USA). Turbo Mass 5.4.2 software was used to control and acquire data from GC–MS. […]

[2] = system: female Japanese quail (Coturnix japonica); test: Female performance traits (body weight, feed intake, egg laying, egg physical characteristics); type: in vivo
Source text: as §1, §2
Female performance was evaluated through the measurement of body weight, feed intake, egg laying rate, egg physical characteristics and a general welfare quality assessment. Body weight was measured once a week throughout the experimental period. Daily feed intake (DFI) was estimated as the difference between the amount of feed supplied to each animal (60 g) and the rest that remained in the feeders the next day (g of feed/day/quail). Egg laying was registered daily and the weekly laying rate was calculated as: (number of eggs / 7 days) x 100. Egg weight, quality characteristics (such as intact, membranous, soft shell and broken shell), morphometric characteristics (egg shape index = (egg width / egg length) x 100) and percentage of constituents (egg yolk, albumen and shell) were registered at each sampling point.

[3] = overall mean over BASAL, VEHICLE and 2, 4, 6.25 g thymol/kg feed diets and five sampling times, no effect of diet

Percentage of THY transferred to egg yolk in relation to the amount ingested ([1]; THY2, 2 g of thymol/kg of feed, 2 days of S): 0.02%
Percentage of THY transferred to egg yolk in relation to the amount ingested ([1]; THY2, 2 g of thymol/kg of feed, 9 days of S): 0.23%
Percentage of THY transferred to egg yolk in relation to the amount ingested ([1]; THY2, 2 g of thymol/kg of feed, 16 days of S): 0.22%
Percentage of THY transferred to egg yolk in relation to the amount ingested ([1]; THY2, 2 g of thymol/kg of feed, 26 days of S): 0.25%
Percentage of THY transferred to egg yolk in relation to the amount ingested ([1]; THY2, 2 g of thymol/kg of feed, pS, 17 days of supplement withdrawal): 0.03%
Percentage of THY transferred to egg yolk in relation to the amount ingested ([1]; THY4, 4 g of thymol/kg of feed, 2 days of S): 0.01%
Percentage of THY transferred to egg yolk in relation to the amount ingested ([1]; THY4, 4 g of thymol/kg of feed, 9 days of S): 0.17%
Percentage of THY transferred to egg yolk in relation to the amount ingested ([1]; THY4, 4 g of thymol/kg of feed, 16 days of S): 0.17%
Percentage of THY transferred to egg yolk in relation to the amount ingested ([1]; THY4, 4 g of thymol/kg of feed, 26 days of S): 0.16%
Percentage of THY transferred to egg yolk in relation to the amount ingested ([1]; THY4, 4 g of thymol/kg of feed, pS, 17 days of supplement withdrawal): 0.02%
Percentage of THY transferred to egg yolk in relation to the amount ingested ([1]; THY6, 6.25 g of thymol/kg of feed, 2 days of S): 0.02%
Percentage of THY transferred to egg yolk in relation to the amount ingested ([1]; THY6, 6.25 g of thymol/kg of feed, 9 days of S): 0.14%
Percentage of THY transferred to egg yolk in relation to the amount ingested ([1]; THY6, 6.25 g of thymol/kg of feed, 16 days of S): 0.13%
Percentage of THY transferred to egg yolk in relation to the amount ingested ([1]; THY6, 6.25 g of thymol/kg of feed, 26 days of S): 0.13%
Percentage of THY transferred to egg yolk in relation to the amount ingested ([1]; THY6, 6.25 g of thymol/kg of feed, pS, 17 days of supplement withdrawal): 0.03%
THY transferred to the egg yolk, of the amount THY ingested ([1]; during the plateau, across THY2, THY4, THY6): 0.13–0.25%
highest concentration of THY detected in egg yolk, molar equivalent ([1]; equivalent of 406 ng/g of egg yolk): ~ 3.05 uM
concentration at 2 days of supplementation ([1]; 2 g/kg of feed, THY2, 2 g of thymol/kg of feed, 2 days of S): 12.5 ng/g
concentration at 9 days of supplementation ([1]; 2 g/kg of feed, THY2, 2 g of thymol/kg of feed, 9 days of S): 156 ng/g
concentration at 16 days of supplementation ([1]; 2 g/kg of feed, THY2, 2 g of thymol/kg of feed, 16 days of S): 150 ng/g
concentration at 26 days of supplementation ([1]; 2 g/kg of feed, THY2, 2 g of thymol/kg of feed, 26 days of S): 169 ng/g
concentration at 17 days after supplement withdrawal ([1]; 2 g/kg of feed, THY2, 2 g of thymol/kg of feed, pS, 17 days of supplement withdrawal): 17.9 ng/g
concentration at 2 days of supplementation ([1]; 4 g/kg of feed, THY4, 4 g of thymol/kg of feed, 2 days of S): 26.1 ng/g
concentration at 9 days of supplementation ([1]; 4 g/kg of feed, THY4, 4 g of thymol/kg of feed, 9 days of S): 297 ng/g
concentration at 16 days of supplementation ([1]; 4 g/kg of feed, THY4, 4 g of thymol/kg of feed, 16 days of S): 295 ng/g
concentration at 26 days of supplementation ([1]; 4 g/kg of feed, THY4, 4 g of thymol/kg of feed, 26 days of S): 282 ng/g
concentration at 17 days after supplement withdrawal ([1]; 4 g/kg of feed, THY4, 4 g of thymol/kg of feed, pS, 17 days of supplement withdrawal): 36.3 ng/g
concentration at 2 days of supplementation ([1]; 6.25 g/kg of feed, THY6, 6.25 g of thymol/kg of feed, 2 days of S): 42.9 ng/g
concentration at 9 days of supplementation ([1]; 6.25 g/kg of feed, THY6, 6.25 g of thymol/kg of feed, 9 days of S): 407 ng/g
concentration at 16 days of supplementation ([1]; 6.25 g/kg of feed, THY6, 6.25 g of thymol/kg of feed, 16 days of S): 372 ng/g
concentration at 26 days of supplementation ([1]; 6.25 g/kg of feed, THY6, 6.25 g of thymol/kg of feed, 26 days of S): 377 ng/g
concentration at 17 days after supplement withdrawal ([1]; 6.25 g/kg of feed, THY6, 6.25 g of thymol/kg of feed, pS, 17 days of supplement withdrawal): 69.5 ng/g
highest concentration of THY detected in egg yolk ([1]; highest of the study): ~406 ng/g of egg yolk
SMILES: Cc1ccc(C(C)C)c(O)c1 [THY, 2 isopropyl-5-methylphenol]
bird's locomotor activity (female quail): without affecting
female quail fear responses when exposed to stressful situations (female quail): reduces female quail fear responses
effect on physical egg traits ([2]; 2, 4, 6.25 g of THY/kg feed): did not affect
effect of the diet supplied on performance variables (body weight, feed intake, egg laying, morphometric characteristics and constituents of eggs) ([2]; 2, 4, 6.25 g of THY/kg feed vs controls, 28 days S and 21 days pS): no effects
Egg shape index ([2]; (egg width / egg length) x 100, overall mean over BASAL, VEHICLE and 2, 4, 6.25 g thymol/kg feed diets and five sampling times, no effect of diet): 79.5%
daily feed intake ([2]; no differences between treatments, all diets): 30.3 ± 1 g/day/animal
Egg albumen [2, 3]: 48.6%
Egg shell [2, 3]: 14.4%
Egg weight [2, 3]: 11.3 g
Egg yolk [2, 3]: 37.0%
Weekly Body Weight per individual [2, 3]: 254 g
Weekly Feed Intake per individual [2, 3]: 212 g
Cumulative number of eggs ([2]; overall mean over BASAL, VEHICLE and 2, 4, 6.25 g thymol/kg feed diets, no effect of diet): 42
